Test results: ChEMBL document CHEMBL4732263 (Bioorg Med Chem, 2021)
Values after ≈ are worked out from the molar mass of the structure shown.

Tests used:
[1] = in vitro; settings: human, Caco-2
[2] = in vitro; settings: human, Caco-2; remark: listed apart in the source
[3] = in vitro; settings: human, Caco-2; remark: listed apart in the source
[4] = physchem; settings: PBS, pH 6.5, pH 6.5
[5] = physchem; settings: octanol/water, pH 7.4
[6] = in vitro; settings: mouse, liver microsomes
[7] = in vitro; settings: mouse, liver microsomes; remark: listed apart in the source
[8] = in vitro; settings: human, liver microsomes
[9] = in vitro; settings: human, liver microsomes; remark: listed apart in the source
[10] = physchem; settings: HCl, pH 2, pH 2
[11] = mouse, microsomes, 1 h, 1 µM
[12] = human, microsomes, 1 h, 1 µM
[13] = octanol/water, pH 7.4

Structure (SMILES) | Papp B→A at 2 h, 20 µM [1] | efflux ratio at 2 h, 20 µM [2] | Papp A→B at 2 h, 20 µM [3] | solubility kinetic [4] | logD [5] | half-life at 1 h, 1 µM [6] | microsomal CLint at 1 h, 1 µM [7] | half-life at 1 h, 1 µM [8] | microsomal CLint at 1 h, 1 µM [9] | solubility kinetic [10] | CL free [11] | CL free [12] | logD [13]
COC(=O)c1ccccc1-c1c2ccc(=N)cc-2oc2cc(N)ccc12 | 120 nm/s | 8.4 | 14 nm/s | – | – | – | – | – | – | – | – | – | –
N=C(N)NC(=O)c1nc(-c2ccco2)c(N)nc1N | – | – | – | 0.025 mg/mL (≈ 95.7 µM) | 1.4 | 0.128 h | 224 µL/min/mg | 0.583 h | 50 µL/min/mg | > 0.1 mg/mL | 245 µL/min/mg | 55 µL/min/mg | –
N=C(N)NC(=O)c1nc(-c2cncnc2)c(N2CCCCCC2)nc1N | – | – | – | 0.0125 mg/mL (≈ 35.2 µM) | – | 1.67 h | 17 µL/min/mg | 1.43 h | 20 µL/min/mg | > 0.1 mg/mL | 27 µL/min/mg | 32 µL/min/mg | 2.8
N=C(N)NC(=O)c1nc(-c2ccc(C(F)(F)F)cc2)c(N)nc1N | – | – | – | 0.05 mg/mL (≈ 147 µM) | 2.8 | 2.55 h | 11 µL/min/mg | > 4.25 h | < 7 µL/min/mg | > 0.1 mg/mL | 17 µL/min/mg | 11 µL/min/mg | –
N=C(N)NC(=O)c1nc(-c2cc3ccccc3s2)c(N2CCCCCC2)nc1N | – | – | – | 0.0031 mg/mL (≈ 7.57 µM) | > 5.3 | 0.35 h | 83 µL/min/mg | 1.03 h | 28 µL/min/mg | 0.0125 mg/mL (≈ 30.5 µM) | 1283 µL/min/mg | 433 µL/min/mg | –
N=C(N)NC(=O)c1nc(-c2ccc(C(F)(F)F)cc2)c(N2CCCCCC2)nc1N | – | – | – | 0.0031 mg/mL (≈ 7.36 µM) | > 5.3 | 0.433 h | 66 µL/min/mg | 1.27 h | 23 µL/min/mg | 0.025 mg/mL (≈ 59.3 µM) | 1020 µL/min/mg | 355 µL/min/mg | –
